For orientation: EC50 means the concentration at which the effect is half-maximal.

The source of these data is patent US20240150346A1, “CLASS OF HETEROAROMATIC COMPOUND, PREPARATION METHOD THEREFOR AND USE THEREOF” (INNOVSTONE THERAPEUTICS LIMITED, priority 2021, published 2024).

Molecules are shown by their SMILES. Where only a bound is given, the exact number is not on record here.

This experiment has as its target T1, human-derived receptor TLR7 (Homo sapiens, UniProt Q9NYK1).
T1 construct: host or cells: HEK-Blue hTLR7 cells (HEK293-derived reporter line)
T1 sequence (Q9NYK1 27-1049): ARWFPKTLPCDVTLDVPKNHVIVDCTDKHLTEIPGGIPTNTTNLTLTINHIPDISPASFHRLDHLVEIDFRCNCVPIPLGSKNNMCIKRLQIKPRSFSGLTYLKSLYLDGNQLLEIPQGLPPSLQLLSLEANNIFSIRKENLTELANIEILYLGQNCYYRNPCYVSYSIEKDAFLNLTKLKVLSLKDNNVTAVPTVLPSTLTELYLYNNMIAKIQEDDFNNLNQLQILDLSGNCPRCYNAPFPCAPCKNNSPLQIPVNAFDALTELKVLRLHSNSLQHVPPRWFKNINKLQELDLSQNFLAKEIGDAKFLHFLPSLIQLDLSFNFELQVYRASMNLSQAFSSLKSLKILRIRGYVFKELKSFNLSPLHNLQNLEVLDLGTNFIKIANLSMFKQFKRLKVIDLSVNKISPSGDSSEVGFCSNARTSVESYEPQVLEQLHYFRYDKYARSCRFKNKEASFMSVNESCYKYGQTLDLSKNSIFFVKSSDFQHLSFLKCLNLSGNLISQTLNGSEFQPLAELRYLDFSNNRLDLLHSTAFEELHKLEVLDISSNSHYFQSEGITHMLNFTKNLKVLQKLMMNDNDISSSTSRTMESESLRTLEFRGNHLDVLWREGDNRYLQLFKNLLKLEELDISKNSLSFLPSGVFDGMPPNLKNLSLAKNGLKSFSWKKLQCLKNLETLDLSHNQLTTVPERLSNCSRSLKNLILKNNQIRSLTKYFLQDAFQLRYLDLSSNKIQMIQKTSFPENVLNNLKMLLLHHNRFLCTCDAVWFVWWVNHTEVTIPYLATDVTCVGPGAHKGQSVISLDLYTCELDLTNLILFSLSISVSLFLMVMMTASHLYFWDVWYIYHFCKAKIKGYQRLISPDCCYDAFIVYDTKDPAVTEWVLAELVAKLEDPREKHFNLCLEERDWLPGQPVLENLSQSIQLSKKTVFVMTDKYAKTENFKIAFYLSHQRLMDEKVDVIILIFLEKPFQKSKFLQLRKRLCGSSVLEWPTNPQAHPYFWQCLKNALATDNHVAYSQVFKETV
The experiment can be described thus: Assay on agonistic activity for human-derived receptor TLR7 (HEK-Blue hTLR7 cells, HEK-Blue Detection Medium). Format: cell-based. Conditions: 16 h incubation, absorbance at 655 nm, read-out: EC50. The protocol:
HEK-Blue™ hTLR7 cells (InvivoGen, hkb-htlr7) were cultured in a DMEM complete medium (Gibco, 12100) containing 10% FBS (Invitrogen, 10099141), 1% P/S (Invitrogen, 15140122), 10 μg/mL Blasticidin (InvivoGen, ant-bl-1), 100 μg/mL Zeocin (InvivoGen, ant-zn-1), and 100 μg/mL Normocin (InvivoGen, ant-nr-1). The cells were cultured in an incubator at 37° C. with 5% CO2. When HEK-Blue™ hTLR7 cells reached a growth density of 70%-80%, cell passage was needed.
The agonistic activity for the human-derived receptor TLR7 by HEK-Blue™ hTLR7 cells was assayed by HEK-Blue™ Detection Medium (InvivoGen, hd-det2). First, a bag of HEK-Blue™ Detection Medium powder was dissolved in 50 mL of ultra-pure sterile water for complete dissolution, and then the dissolved medium was filtered into a new 50 mL centrifuge tube through a 0.22 μm filter. Finally, antibiotics were added into the filtered detection medium until the final concentration was 1% for P/S and 100 μg/mL for Normocin. HEK-Blue™ Detection Medium was pre-heated to 37° C. in advance on the day of the assay on the activity for the TLR7 receptor, and the temperature was always maintained at 37° C.
The compound powder was dissolved in 100% DMSO (Sigma, D2650-100ML) to obtain a 10 mM stock solution, and the compound was completely dissolved by shaking with an oscillator. The stock solution of the compound was subjected to a 5-fold dilution to 2 mM with 100% DMSO. This was followed by a 3-fold serial dilution for a total of 8 concentration gradients. Then, each of the concentration gradients was subjected to a 20-fold dilution to 100 μM, 33.3 μM, 11.1 μM, 3.7 μM, 1.23 μM, […], 0.114 μM, and 0.05 μM using HEK-Blue™ Detection Medium. 20 μL of each of the dilutions was added to a 96-well cell culture plate (Corning, 3599).
On the day of the assay on the agonistic activity for the human-detived receptor TLR7, HEK-Blue™ hTLR7 cells has a growth density of 70%-80%, and the cell medium was removed. 1 mL of cell dissociation buffer (Gibco, 13151-014) was added to each 100 mm cell culture dish, and the cells were incubated in an incubator at 37° C. for 5 min. The cells were pipetted using a DMEM cell medium to obtain a single cell suspension, which was then centrifuged at 1000 rpm for 10 min to collect the cell pellet. The cell pellet was resuspended with HEK-Blue™ Detection Medium pre heated to 37° C. The cells were counted and diluted to 220,000 cells/mL. Finally, 180 μL of cell suspension (40,000 cells/well) was added to each well of the 96-well cell culture plate to which the compound had been added, and the cell suspension was mixed with the compound using a pipettor. Final concentrations of the compound were 10 μM, 3.3 μM, 1.1 μM, 0.37 μM, 0.12 μM, 0.04 μM, 0.01 μM, and 0.005 μM. After incubation in an incubator at 37° C. for 16 h, the absorbance was read at 655 nm using an M5e microplate reader (MD, USA).
The EC50 of the compound was calculated using the software GraphPad Prism (GraphPad Software, USA). The background reading of the detection culture was subtracted from the absorbance readings at 655 nm of all wells of the 96-well plate, the ratio of each well to the negative control well (the well without the compound) was calculated, and then the percentage of the ratio of each well to the positive control well (the well treated with 10 μM positive compound), i.e., the percentage of activity, was calculated. Finally, the sigmoidal dose-response (variable slope) curve between the percentage of activity and the concentration of the compound was calculated using the software GraphPad Prism to calculate the EC50 of the compound. […]
For `Nc1nc2ccccc2c2c1[nH]c(=S)n2Cc1ccc(CN2CCCC2)cc1` [Example 155, 4-amino-1-(4-(pyrrolidin-1-ylmethyl)benzyl)-1,3-dihydro-2H-imidazo[4,5-c]quinoline-2-thione], the EC50 was less than 50 nM. With `COc1cc(CNC(C)C)ccc1Cn1c(SC)nc2c(N)nc3ccccc3c21` [Example 241], the EC50 lay in the range of 50 to 100 nM.

As for `C=CCSc1nc2c(N)nc3ccccc3c2n1Cc1ccc(CN2CC[C@@H](F)C2)cc1` [Example 211], the EC50 was 50 to 100 nM.

Turning to `CCSc1nc2c(N)nc3ccccc3c2n1Cc1ccc(CN2CC(O)C2)cc1` [Example 207], the EC50 fell in the range of 50 to 100 nM.

Regarding `CCCCOc1nc(N)c2[nH]c(=O)n(Cc3ccc(CN4CCN(C(=O)COC)CC4)s3)c2n1` [Example 48], the EC50 was less than 50 nM. With `CCCCOc1nc(N)c2[nH]c(=O)n(Cc3ccc(CN4CCNCC4)s3)c2n1` [Example 46], the EC50 was less than 50 nM. For `CCCCOc1nc(N)c2[nH]c(=O)n(Cc3ccc(CN4CCN(C(=O)CO)CC4)s3)c2n1` [Example 47], the EC50 is less than 50 nM.

For `CSc1nc2c(N)nc3ccccc3c2n1Cc1ccc(N2CCN(C)CC2)cc1` [Example 212], the EC50 is less than 50 nM. Turning to `CCCCSc1nc2c(N)nc3ccccc3c2n1Cc1ccc(CN2CCCC2)cc1` [Example 161], the half-maximal effective concentration (EC50) fell in the range of 50 to 100 nM. As for `CSc1nc2c(N)nc3ccccc3c2n1Cc1ccc(CN(C)C)cc1` [Example 189], the EC50 is 50 to 100 nM. In the case of `CSc1nc2c(N)nc3ccccc3c2n1Cc1ccc(OCCN(C)C)nc1` [Example 223], the EC50 was 50 to 100 nM.

In the case of `COCSc1nc2c(N)nc3ccccc3c2n1Cc1ccc(CN2CCCC2)cc1` [Example 157], the EC50 was less than 50 nM. To `COc1cc(C2CCN(C)CC2)ccc1Cn1c(SC)nc2c(N)nc3ccccc3c21` [Example 246] belongs 50 to 100 nM; to `CCSc1nc2c(N)nc3ccccc3c2n1Cc1ccc(CN2CC[C@H](O)C2)cc1` [Example 209], 50 to 100 nM.
